Data as given in patent publication US20250376441A1, “NOVEL COMPOUND AND PHARMACEUTICAL COMPOSITION COMPRISING SAME AS ACTIVE INGREDIENT” (Industry-Academic Cooperation Foundation, Yonsei University, priority 2017, published 2025).
Where two headings read alike, the source gives them in different places.

Tests used:
[1] = assay type: in vitro ADME; conditions: PAMPA
Excerpt: The results are illustrated in FIG. 17.

[2] = Lipophilicity (pKa, LogP); assay type: physicochemical; conditions: ACD/Labs T3 (pH-metrior)
Method: For a preliminary examination on clinical application of the Preparation Example 6, evaluation on lipophilicity and solubility was performed.

CHO-K1 = assay: Cytotoxicity test (Cyto X cell viability assay kit), CHO-K1; assay type: cell-based; conditions: Cricetulus griseus
Method: (§1) In order to identify whether the Preparation Example 6 according to the present invention is toxic to cells, a cytotoxicity test was conducted at the Korea Research Institute of Chemical Technology using the Cyto X™ cell viability assay kit ([…]).

[3] = system: amyloid-beta peptide1-42 degenerative neurological disease-induced mice; assay: Morris water maze test; assay type: in vivo, ICR mice
Excerpt: Six-week-old ICR mice (male) were purchased, and then examined for general health for 6 days while subjecting them to quarantine and acclimation under an environment of animal breeding room. Then, healthy individuals were selected and used for the experiment. Identification of each individual was made by marking the number of each individual on the tail using a permanent marker, and identification of a breeding box was made by attaching an individual identification card on which test number, test substance name, test item, date of acquisition, acclimation period, date of grouping, test period, sex/animal number, and person in charge are indicated.
In order to induce a degenerative neurological disease, the experimental animals of Preparatory Example 1 were anesthetized by inhalation with 2.5% isoflurane. Then, 1 μg of amyloid-beta peptide1-42, a degenerative neurological disease-inducing substance, was administered to the animals at both hippocampal positions (AP: −2.3, L: ±2.0, H: −1.5) using a stereotaxic apparatus. […] For the administration, 1 μl was injected, at a flow rate of 0.2 μl/min, with a […] gas-tight glass syringe (Hamilton, Reno, NV, USA) using a perfusion pump (Pump 22, Harvard Apparatus, South Natick, MA, USA). Subsequently, the syringe was allowed to stand for 5 minutes and then removed.
Then, a degenerative neurological disease was induced as in Preparation Example 2.
After induction of the degenerative neurological disease, the following test was conducted after a one-day recovery period passed.
A circular pool (diameter: 120 cm, height: 75 cm) was filled with water to a depth of 25±1 cm as in FIG. 4, and a 24 cm platform was prepared by hiding it 1 cm below the water surface. Space cues were installed on the four sides of the wall so that the aminals can identify locations, and skimmed milk powder was dissolved into water so that the animals cannot identify the platform with naked eyes. One day before the experiment, all the experimental animals were allowed to swim freely for 1 minute in a water bath having no platform, so that the animals can adapt to the swimming situation. After that, a test group was allowed to start, in any order, from two of the three quadrants except the quadrant where the platform was placed, and allowed to find the platform for 60 seconds. In a case where an animal finds the platform, the animal was allowed to stay thereon for 20 seconds. […] As soon as end of the position learning time, which is the 20-second staying time, the animal was allowed to start again from any quadrant, and the time and distance to reach the platform were measured. The procedure was performed four times a day, and all procedures were taken with a camera and analyzed with a video tracking system (Panlab, USA). Probe trials were made on the fifth day after the four-day experiment in toal was completed. The test group was allowed to swim freely for 90 seconds without the platform, thereby performing evaluation on whether the test group holds a memory of the platform location. The results are illustrated in FIGS. 5 to 7.

[4] = system: acetylcholine in brain tissues; assay: Acetylcholine content in brain tissue; assay type: in vivo, ICR mice
Method: (§2) Subsequently, the syringe was allowed to stand for 5 minutes and then removed.
Measurement of acetylcholine in brain tissues was performed based on response of o-acyl derivatives with alkaline hydroxylamine. Specifically, 50 μl of brain tissue was taken and 50 μl of 1% hydroxylamine (Sigma, USA) was added and mixed. […] Finally, 500 μl of FeCl3 (10% in 0.1 N HCl) was added to measure an acetylcholine level (umole/mg protein), and then the absorbance was measured at 530 nm.

L929 = assay: Cytotoxicity test (Cyto X cell viability assay kit), L929; assay type: cell-based; conditions: Mus musculus
Method: as §1

VERO = assay: Cytotoxicity test (Cyto X cell viability assay kit), VERO; assay type: cell-based; conditions: Chlorocebus sabaeus
Method: as §1

hERG channel = hERG channel (Homo sapiens, UniProt Q12809); assay: Cardiac stability test, hERG ligand binding assay; conditions: read-out: Inhibition rate
hERG channel, sequence (Q12809 whole entry): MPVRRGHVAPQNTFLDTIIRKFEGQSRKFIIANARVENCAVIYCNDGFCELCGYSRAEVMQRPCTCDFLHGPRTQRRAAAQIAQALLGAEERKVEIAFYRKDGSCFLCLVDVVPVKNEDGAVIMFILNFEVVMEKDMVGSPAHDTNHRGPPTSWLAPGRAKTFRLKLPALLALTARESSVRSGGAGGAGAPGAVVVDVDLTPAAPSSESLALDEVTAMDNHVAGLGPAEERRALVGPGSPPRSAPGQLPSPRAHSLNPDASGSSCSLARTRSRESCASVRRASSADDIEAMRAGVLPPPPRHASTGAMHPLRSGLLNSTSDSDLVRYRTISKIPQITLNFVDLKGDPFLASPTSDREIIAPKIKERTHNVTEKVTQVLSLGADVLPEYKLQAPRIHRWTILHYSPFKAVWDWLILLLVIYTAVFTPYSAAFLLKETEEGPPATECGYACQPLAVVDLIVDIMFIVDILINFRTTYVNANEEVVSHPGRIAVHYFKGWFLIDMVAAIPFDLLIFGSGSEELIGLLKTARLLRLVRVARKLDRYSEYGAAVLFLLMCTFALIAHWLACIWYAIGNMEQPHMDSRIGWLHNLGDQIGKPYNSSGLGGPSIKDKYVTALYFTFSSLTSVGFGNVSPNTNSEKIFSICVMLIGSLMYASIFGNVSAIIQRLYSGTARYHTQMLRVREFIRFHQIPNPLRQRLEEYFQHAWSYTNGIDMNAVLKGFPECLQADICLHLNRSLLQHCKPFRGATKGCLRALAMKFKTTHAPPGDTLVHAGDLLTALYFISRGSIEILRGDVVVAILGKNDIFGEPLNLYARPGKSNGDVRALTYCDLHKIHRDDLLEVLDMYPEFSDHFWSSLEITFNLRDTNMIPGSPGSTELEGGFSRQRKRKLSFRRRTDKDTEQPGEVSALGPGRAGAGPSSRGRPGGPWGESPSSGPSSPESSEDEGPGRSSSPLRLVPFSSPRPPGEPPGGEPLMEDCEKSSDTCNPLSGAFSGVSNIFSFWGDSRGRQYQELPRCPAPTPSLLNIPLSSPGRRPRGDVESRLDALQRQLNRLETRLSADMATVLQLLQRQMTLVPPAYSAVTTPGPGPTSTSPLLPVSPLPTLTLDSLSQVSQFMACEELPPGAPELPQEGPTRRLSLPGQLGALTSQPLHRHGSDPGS

[5] = system: Tunel positive cells in brain tissue; assay: Apoptosis level in brain tissue by TUNEL assay; assay type: in vivo, ICR mice
Method: as §2
Then, an apoptosis level was checked through TUNEL assay. The TUNEL assay is a method to search for cells that have undergone apoptosis by attaching a fluorescent substance to ends of DNA fragments cleaved due to apoptosis. The extracted brain tissue of the experimental animal is fixed by perfusion with 4% formaldehyde. Then, the brain tissue was embedded in paraffin and sectioned to a thickness of 5 μm. The brain tissue fixed on a slide was subjected to a TUNEL assay kit so that the end portions where DNA having undergone apoptosis had been fragmented are fluorescence-stained, and checked by a fluorescence microscope.

acetylcholine hydrolase = assay type: in vivo; conditions: brain tissue
Method: as §2
Then, acetylcholine hydrolase activity was measured by the following method. To a microplate were continuously added 300 μl of 0.1 M Tris buffer, pH 8.0 (Trizma HCl±Trizmabase), 20 μl of 0.01 M dithionitrobenzoic acid (DTNB; Sigma, USA), 10 μl of brain tissue homogenate (enzyme suspension). Immediately before absorbance measurement, 10 μl of 0.1 M acetylthiocholine chloride (Sigma, USA) as a substrate was added thereto. An absorbance meter was used to observe absorbance changes at 405 nm for 5 minutes, so that acetylcholine hydrolase activity (unit/min/mg protein) was measured.

## COc1ccc(OC)c(/C=C/C(=O)c2ccc(NS(=O)(=O)c3ccc(Cl)cc3)cc2)c1 [Preparation Example 6, (E)-4-Chloro-N-(4-(3-(2,5-dimethoxyphenyl)acryloyl)phenyl)benzenesulfonamide]
[1]
  degree of permeability: medium value
  membrane permeability measured value: −4.4±0.152
[2]
  logP: 4.75
CHO-K1
  IC50: > 100 µM
[3]; 1 mg
  maximum platform escape latency: 136.45 (±26.02) seconds
  minimum time to find the platform: 44.45 (±13.35) seconds
[3]; 1 mg, fourth day, p<0.05
  escape latency, fourth trial (short-term memory): 44.45 ± 13.35 s
[3]; 1 mg, fourth day, p<0.05 vs beta-amyloid group
  escape latency, first trial (long-term memory): 73.58 ± 9.14 s
[3]; 10 mg
  maximum platform escape latency: 128.59 (±23.32) seconds
  minimum time to find the platform: 40.64 (±10.94) seconds
[3]; 10 mg, first day, p<0.05
  escape latency, fourth trial (short-term memory): 76.14 ± 13.27 s
[3]; 10 mg, fourth day, p<0.05
  escape latency, fourth trial (short-term memory): 40.64 ± 10.94 s
[3]; 10 mg, fourth day, p<0.05 vs beta-amyloid group
  escape latency, first trial (long-term memory): 65.22 ± 13.65 s
[3]; 10 mg, second day, p<0.05
  escape latency, fourth trial (short-term memory): 59.87 ± 12.56 s
[3]; 10 mg, second day, p<0.05 vs beta-amyloid group
  escape latency, first trial (long-term memory): 95.05 ± 18.06 s
[3]; 10 mg, third day, p<0.05
  escape latency, fourth trial (short-term memory): 54.07 ± 14.38 s
[3]; 10 mg, third day, p<0.05 vs beta-amyloid group
  escape latency, first trial (long-term memory): 91.66 ± 12.68 s
[3]; 100 mg
  maximum platform escape latency: 125.66 (±19.35) seconds
  minimum time to find the platform: 36.48 (±9.54) seconds
[3]; 100 mg, first day, p<0.05
  escape latency, fourth trial (short-term memory): 73.79 ± 12.15 s
[3]; 100 mg, fourth day, p<0.01
  escape latency, fourth trial (short-term memory): 36.48 ± 9.54 s
[3]; 100 mg, fourth day, p<0.05 vs beta-amyloid group
  escape latency, first trial (long-term memory): 64.7 ± 12.63 s
[3]; 100 mg, second day, p<0.01 vs beta-amyloid group
  escape latency, first trial (long-term memory): 91.66 ± 12.68 s
[3]; 100 mg, second day, p<0.05
  escape latency, fourth trial (short-term memory): 59.62 ± 8.22 s
[3]; 100 mg, third day, p<0.01
  escape latency, fourth trial (short-term memory): 47.74 ± 10.81 s
[3]; 100 mg, third day, p<0.05 vs beta-amyloid group
  escape latency, first trial (long-term memory): 83.41 ± 11.46 s
[4]; 1 mg, p<0.05
  acetylcholine content: 22.31±1.80 μmole/mg protein
[4]; 10 mg, p<0.01
  acetylcholine content: 23.08±1.54 μmole/mg protein
[4]; 100 mg, p<0.01
  acetylcholine content: 22.79±1.45 μmole/mg protein
L929
  IC50: > 100 µM
VERO
  IC50: 83.6 µM
hERG channel; hERG channel (ligand binding assay)
  inhibition at 10 µM: < 1%
hERG channel
  inhibition at 10 µM: ≤ 1%
[5]; 1 mg, p<0.05
  number of Tunel positive cells: 88.83±18.98
[5]; 10 mg, p<0.01
  number of Tunel positive cells: 69.5±17.87
[5]; 100 mg, p<0.01
  number of Tunel positive cells: 67.00±19.54
Acetylcholine hydrolase; 10 mg
  acetylcholine hydrolase activity: 0.25±0.07 U/mg protein
Acetylcholine hydrolase; 100 mg
  acetylcholine hydrolase activity: 0.24±0.05 U/mg protein
